# Laboratory results published in US10076504B2, “Glucagon antagonists” (Ligand Pharmaceuticals, Inc., priority 2014, dated 2018).
# Entries after “also recorded” stand apart in the source; their conditions may differ. Where two headings read alike, the source gives them in different places.
# Legend:
# [1] = Liver microsome incubation; type: in vitro ADME, mouse
# Procedure: (§1) The compound of Formula IIIa (below) was incubated for 60 minutes at 37 C with mouse, rat, dog, monkey, and human liver microsomes.
# (§2) Concentrations of IIIa were measured at multiple time points by LC-MS/MS. IIIa was stable with predicted clearance well below hepatic blood flow in all species.
# [2] = Liver microsome incubation; type: in vitro ADME, dog
# Procedure: as §1, §2
# [3] = Liver microsome incubation, statement for all species; type: in vitro ADME; conditions: predicted clearance well below hepatic blood flow
# Procedure: as §1, §2
# [4] = Liver microsome incubation; type: in vitro ADME, human
# Procedure: as §1, §2
# [5] = Excretion experiments in rats; type: in vivo, rat
# Procedure: Pharmacokinetics of IIIa were evaluated after both oral and IV administration in mice, rats, dogs, and monkeys.
# [6] = Liver microsome incubation; type: in vitro ADME, monkey
# Procedure: as §1, §2
# [7] = Single ascending dose study, pharmacokinetics; type: in vivo, human; conditions: for AUC(0-inf) / Cmax / Tmax / half-life: human, plasma, po; for time to peak plasma concentrations: post dose
# Procedure: (§3) Oral doses of IIIa were administered to normal healthy volunteers (NHV) and subjects with type 2 diabetes mellitus (T2DM). A single center, randomized, double-blind, placebo-controlled single ascending dose study was done in both NHV (n=48) and T2DM subjects (n=8). Dose escalation only occurred after review of safety and tolerability data from previous dose levels (n=8/cohort; 2-placebo & 6-IIIa). Dosing of the T2DM cohort was initiated only after the equivalent dose had been administered to NHV and safety data had been reviewed. All subjects were administered IIIa in the morning after an overnight fast with the exception of the NHV in the 40 mg cohort. NHV subjects in the 40 mg cohort initially received IIIa in a fasted state. Following a 3 week washout period, IIIa was readministered after breakfast at 40 mg to determine the effects of food consumption on pharmacokinetics.
# (§4) This was a single center, randomized, double-blind, placebo-controlled single ascending dose study in both normal healthy volunteers (NHV) (n=48) and subjects with type 2 diabetes mellitus (T2DM) (n=8). All subjects were administered Formula IIIa as a solution formulated with Captisol® after an overnight fast with the exception of the NHV in the 40 mg cohort. The NHV 40 mg cohort initially received Formula IIIa in a fasted state. Following a washout period, subjects received 40 mg Formula IIIa after breakfast to explore the effects of food consumption on pharmacokinetics.
# Plasma levels of Formula IIIa were measured by validated LC-MS/MS method. Formula IIIa was well absorbed after oral administration with peak plasma concentrations reached approximately 5-8 hours post dose. Consistent with preclinical predictions, clearance was slow and Formula IIIa was not detected in the urine.
# [8] = Liver microsome incubation; type: in vitro ADME, rat
# Procedure: as §1, §2
# [9] = Single ascending dose study, safety and tolerability; type: in vivo, human; conditions: for Any study drug related TEAE / Gastrointestinal disorders Diarrhoea / Gastrointestinal disorders Nausea / Gastrointestinal disorders Vomiting / Nervous systems disorders Headache: Normal Healthy Volunteers, 6 subjects; for tolerability: single oral doses 2 to 480 mg in NHV, 40 mg in T2DM subjects
# Procedure: as §3, §4
# In type 2 diabetes mellitus (T2DM), inappropriately elevated levels of glucagon exacerbate hyperglycemia and its associated complications. Not wishing to be bound to a particular theory, it has been observed that antagonism of glucagon action reduces blood glucose levels and hemoglobin A1c in patients with T2DM. The novel, selective, orally bioavailable glucagon receptor antagonist, Formula IIIa (below), was investigated regarding its pharmacokinetics (PK), safety, and pharmacodynamics (PD) in a first-in-human, ascending, single-dose, double blind, placebo-controlled study in normal healthy (NH) and T2DM subjects (NCT01919684).
# [10] = human subjects, oral administration
# [11] = 40 mg, Diabetic, 40 mg oral, Fasted
# [12] = 40 mg, Normal healthy volunteer, 40 mg oral, Fasted
# [13] = 40 mg, Normal healthy volunteer, 40 mg oral, Fed
# [14] = NHV and T2DM subjects, single dose
smiles,measurement,setting,value
Cc1cc(C)c(-c2ccc(NC(=O)[C@H](Cc3ccc(C(=O)NCCS(=O)(=O)O)cc3)c3ccc(-c4ccc(C(C)(C)C)cc4)cc3)cc2)c(C)c1 [IIIa],1st-order kinetic rate constant,"[1]; Mouse liver microsomes, 60 minutes at 37 C",0.0017 min⁻¹
same,Predicted systemic clearance,"[1]; Mouse, from liver microsomes",7.05 mL/min/kg body weight
same,1st-order kinetic rate constant,"[2]; Dog liver microsomes, 60 minutes at 37 C",0.0016 min⁻¹
same,Predicted systemic clearance,"[2]; Dog, from liver microsomes",4.01 mL/min/kg body weight
same,stability in liver microsomes,[3],stable
same,1st-order kinetic rate constant,"[4]; Human liver microsomes, 60 minutes at 37 C",0.0021 min⁻¹
same,Predicted systemic clearance,"[4]; Human, from liver microsomes",3.18 mL/min/kg body weight
same,levels detected in the urine,[5],negligible
same,route of excretion,[5],primarily excreted in the bile
same,1st-order kinetic rate constant,"[6]; Monkey liver microsomes, 60 minutes at 37 C",0.0057 min⁻¹
same,Predicted systemic clearance,"[6]; Monkey, from liver microsomes",11.9 mL/min/kg body weight
same,pharmacokinetics in healthy volunteers vs diabetic subjects,[7]; 40 mg,comparable
same,effect of food on pharmacokinetics,"[7]; 40 mg, healthy volunteers, fasted vs after breakfast",comparable
same,plasma exposure versus dose,"[7]; 2 to 480 mg oral, human subjects",Dose dependent increases
same,CL/F,"[7]; Diabetic, 40 mg oral, Fasted",1.32 L/h
same,CL/F,"[7]; Normal healthy volunteer, 40 mg oral, Fasted",1.33 L/h
same,CL/F,"[7]; Normal healthy volunteer, 40 mg oral, Fed",1.67 L/h
same,absorption after oral administration,[7]; human subjects,well absorbed
same,clearance,[7]; [10],slow
same,detection in the urine,[7]; [10],not detected
same,absorption after oral administration,"[7]; human subjects, listed as Formula IIIa",well absorbed; also recorded: well-absorbed
same,AUC(0-inf),[7]; [11],33700 ng·h/mL
same,Cmax,[7]; [11],1420 ng/mL
same,Tmax,[7]; [11],7.5 h
same,half-life,"[7]; 40 mg, Diabetic, 40 mg oral, Fasted, read-out: t1/2 (converted)",58.5 h
same,AUC(0-inf),[7]; [12],32700 ng·h/mL
same,Cmax,[7]; [12],893 ng/mL
same,Tmax,[7]; [12],8.4 h
same,half-life,"[7]; 40 mg, Normal healthy volunteer, 40 mg oral, Fasted, read-out: t1/2 (converted)",51.6 h
same,AUC(0-inf),[7]; [13],25200 ng·h/mL
same,Cmax,[7]; [13],779 ng/mL
same,Tmax,[7]; [13],7.2 h
same,half-life,"[7]; 40 mg, Normal healthy volunteer, 40 mg oral, Fed, read-out: t1/2 (converted)",53.8 h
same,half-life,"[7]; oral administration, NH and T2DM subjects, read-out: elimination half-life (converted)",~50 h
same,time to peak plasma concentrations,"[7]; oral administration, human subjects",5 to 8 h
same,time to peak plasma concentrations,"[7]; oral administration, human subjects, listed as Formula IIIa",5 to 8 h
same,1st-order kinetic rate constant,"[8]; Rat liver microsomes, 60 minutes at 37 C",0.0058 min⁻¹
same,Predicted systemic clearance,"[8]; Rat, from liver microsomes",13.8 mL/min/kg body weight
same,cases of hypoglycemia (glucose <60 mg/dL),[9]; [14],no cases of hypoglycemia
same,serious adverse events,[9]; [14],no serious adverse events
same,Any study drug related TEAE,[9]; 2 mg,0 (0.0)
same,Gastrointestinal disorders Diarrhoea,[9]; 2 mg,0 (0.0)
same,Gastrointestinal disorders Nausea,[9]; 2 mg,0 (0.0)
same,Gastrointestinal disorders Vomiting,[9]; 2 mg,0 (0.0)
same,Nervous systems disorders Headache,[9]; 2 mg,0 (0.0)
same,Any study drug related TEAE,[9]; 10 mg,1 (16.7)
same,Gastrointestinal disorders Diarrhoea,[9]; 10 mg,0 (0.0)
same,Gastrointestinal disorders Nausea,[9]; 10 mg,0 (0.0)
same,Gastrointestinal disorders Vomiting,[9]; 10 mg,0 (0.0)
same,Nervous systems disorders Headache,[9]; 10 mg,1 (16.7)
same,Any study drug related TEAE,[9]; 40 mg,0 (0.0)
same,Gastrointestinal disorders Diarrhoea,[9]; 40 mg,0 (0.0)
same,Gastrointestinal disorders Nausea,[9]; 40 mg,0 (0.0)
same,Gastrointestinal disorders Vomiting,[9]; 40 mg,0 (0.0)
same,Nervous systems disorders Headache,[9]; 40 mg,0 (0.0)
same,Any study drug related TEAE,[9]; 120 mg,2 (33.3)
same,Gastrointestinal disorders Diarrhoea,[9]; 120 mg,0 (0.0)
same,Gastrointestinal disorders Nausea,[9]; 120 mg,0 (0.0)
same,Gastrointestinal disorders Vomiting,[9]; 120 mg,0 (0.0)
same,Nervous systems disorders Headache,[9]; 120 mg,2 (33.3)
same,Any study drug related TEAE,[9]; 240 mg,2 (33.3)
same,Gastrointestinal disorders Diarrhoea,[9]; 240 mg,0 (0.0)
same,Gastrointestinal disorders Nausea,[9]; 240 mg,1 (16.7)
same,Gastrointestinal disorders Vomiting,[9]; 240 mg,0 (0.0)
same,Nervous systems disorders Headache,[9]; 240 mg,1 (16.7)
same,Any study drug related TEAE,[9]; 480 mg,2 (33.3)
same,Gastrointestinal disorders Diarrhoea,[9]; 480 mg,1 (16.7)
same,Gastrointestinal disorders Nausea,[9]; 480 mg,1 (16.7)
same,Gastrointestinal disorders Vomiting,[9]; 480 mg,1 (16.7)
same,Nervous systems disorders Headache,[9]; 480 mg,0 (0.0)
same,"study drug related treatment emergent adverse events (TEAE), NHV vs T2DM subjects",[9]; single dose,observed in the NHV but not the T2DM subjects
same,tolerability,[9],well tolerated
same,tolerability,[9]; listed as Formula IIIa,well tolerated and considered safe up to the highest dose tested
